“And” between values parts separate entries of the source, which are not always exact repeats. Equal entries are not always repeated.
What was measured:
Assay type in all cases: in vivo
Cocklebur [1] = assay: pre-emergence herbicide test; conditions: 0.25 lb/A; for inhibition at 280.212 g/ha: Xanthium strumarium, pre-emergence, read-out: % plant inhibition
Outline: (§1)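 Soil-applied pre-emergence screen: compound added to cover topsoil over sown seeds, pans held on greenhouse bench with subirrigation, % inhibition scored ~2 weeks later.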

Velvetleaf [2] = assay: pre-emergence herbicide test; conditions: 0.25 lb/A; for inhibition at 280.212 g/ha: Abutilon theophrasti, pre-emergence, read-out: % plant inhibition
Outline: as §1

Corn [3] = assay: pre-emergence herbicide test; conditions: 0.25 lb/A; for inhibition at 280.212 g/ha: Zea mays, pre-emergence, read-out: % plant inhibition
Outline: as §1

Downy Brome [4] = assay: pre-emergence herbicide test; conditions: Bromus tectorum, pre-emergence, 0.25 lb/A; read-out: % plant inhibition
Outline: as §1

Birdseye Speedwell [5] = assay: pre-emergence herbicide test; conditions: pre-emergence, 0.25 lb/A; read-out: % plant inhibition
Outline: as §1

Blackgrass [6] = assay: pre-emergence herbicide test; conditions: Alopecurus myosuroides, pre-emergence, 0.25 lb/A; read-out: % plant inhibition
Outline: as §1

Common Chickweed [7] = assay: pre-emergence herbicide test; conditions: pre-emergence, 0.25 lb/A; read-out: % plant inhibition
Outline: as §1

Rape [8] = assay: pre-emergence herbicide test; conditions: pre-emergence, 0.25 lb/A; read-out: % plant inhibition
Outline: as §1

Wheat [9] = assay: pre-emergence herbicide test; conditions: Triticum aestivum, pre-emergence, 0.25 lb/A; read-out: % plant inhibition
Outline: as §1

Soybean [10] = assay: pre-emergence herbicide test; conditions: Glycine max, pre-emergence, 0.25 lb/A; read-out: % plant inhibition
Outline: as §1

Green Foxtail [11] = assay: pre-emergence herbicide test; conditions: Setaria viridis, pre-emergence; 0.25 lb/A; read-out: % plant inhibition
Outline: as §1

Seedling Johnsongrass [12] = assay: pre-emergence herbicide test; conditions: Sorghum halepense, pre-emergence, 0.25 lb/A; read-out: % plant inhibition
Outline: as §1

Bedstraw Catchweed [13] = assay: pre-emergence herbicide test; conditions: Galium aparine, pre-emergence, 0.25 lb/A; read-out: % plant inhibition
Outline: as §1

Barnyardgrass [14] = assay: pre-emergence herbicide test; conditions: 0.25 lb/A; for inhibition at 280.212 g/ha: Echinochloa crus-galli, pre-emergence, read-out: % plant inhibition
Outline: as §1

Giant Foxtail [15] = assay: pre-emergence herbicide test; conditions: Setaria faberi, pre-emergence, 0.25 lb/A; read-out: % plant inhibition
Outline: as §1

Morning Glory [16] = assay: pre-emergence herbicide test; conditions: 0.25 lb/A
Outline: as §1

Wild Oats [17] = assay: pre-emergence herbicide test; conditions: Avena fatua, pre-emergence, 0.25 lb/A; read-out: % plant inhibition
Outline: as §1

Cocklebur [18] = assay: post-emergence herbicide test; conditions: Xanthium strumarium, post-emergence, 0.25 lb/A; read-out: % plant inhibition
Outline: (§2)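 Sown pans kept on a greenhouse bench with irrigation or subirrigation until plants reached two to three weeks, then sprayed at 170.3 kPa (10 psig). Spray mix held about 0.4% by volume emulsifier; total volume 1870 L/Ha. Result expressed as percent inhibition.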

Velvetleaf [19] = assay: post-emergence herbicide test; conditions: Abutilon theophrasti, post-emergence, 0.25 lb/A; read-out: % plant inhibition
Outline: as §2

Corn [20] = assay: post-emergence herbicide test; conditions: Zea mays, post-emergence, 0.25 lb/A; read-out: % plant inhibition
Outline: as §2

Downy Brome [21] = assay: post-emergence herbicide test; conditions: Bromus tectorum, post-emergence, 0.25 lb/A; read-out: % plant inhibition
Outline: as §2

Birdseye Speedwell [22] = assay: post-emergence herbicide test; conditions: post-emergence, 0.25 lb/A; read-out: % plant inhibition
Outline: as §2

Blackgrass [23] = assay: post-emergence herbicide test; conditions: Alopecurus myosuroides, post-emergence, 0.25 lb/A; read-out: % plant inhibition
Outline: as §2

Common Chickweed [24] = assay: post-emergence herbicide test; conditions: post-emergence, 0.25 lb/A; read-out: % plant inhibition
Outline: as §2

Rape [25] = assay: post-emergence herbicide test; conditions: post-emergence, 0.25 lb/A; read-out: % plant inhibition
Outline: as §2

Wheat [26] = assay: post-emergence herbicide test; conditions: Triticum aestivum, post-emergence, 0.25 lb/A; read-out: % plant inhibition
Outline: as §2

Soybean [27] = assay: post-emergence herbicide test; conditions: Glycine max, post-emergence, 0.25 lb/A; read-out: % plant inhibition
Outline: as §2

Green Foxtail [28] = assay: post-emergence herbicide test; conditions: Setaria viridis, post-emergence, 0.25 lb/A; read-out: % plant inhibition
Outline: as §2

Seedling Johnsongrass [29] = assay: post-emergence herbicide test; conditions: Sorghum halepense, post-emergence, 0.25 lb/A; read-out: % plant inhibition
Outline: as §2

Bedstraw Catchweed [30] = assay: post-emergence herbicide test; conditions: Galium aparine, post-emergence, 0.25 lb/A; read-out: % plant inhibition
Outline: as §2

Barnyardgrass [31] = assay: post-emergence herbicide test; conditions: Echinochloa crus-galli, post-emergence, 0.25 lb/A; read-out: % plant inhibition
Outline: as §2

Giant Foxtail [32] = assay: post-emergence herbicide test; conditions: Setaria faberi, post-emergence, 0.25 lb/A; read-out: % plant inhibition
Outline: as §2

Morning Glory [33] = assay: post-emergence herbicide test; conditions: Ipomoea, post-emergence, 0.25 lb/A; read-out: % plant inhibition
Outline: as §2

Wild Oats [34] = assay: post-emergence herbicide test; conditions: Avena fatua, post-emergence, 0.25 lb/A; read-out: % plant inhibition
Outline: as §2

SMILES | inhibition at 280.212 g/ha (Cocklebur [1]) [%] | inhibition at 280.212 g/ha (Velvetleaf [2]) [%] | inhibition at 280.212 g/ha (Corn [3]) [%] | inhibition at 280.212 g/ha (Downy Brome [4]) [%] | inhibition at 280.212 g/ha (Birdseye Speedwell [5]) [%] | inhibition at 280.212 g/ha (Blackgrass [6]) [%] | inhibition at 280.212 g/ha (Common Chickweed [7]) [%] | inhibition at 280.212 g/ha (Rape [8]) [%] | inhibition at 280.212 g/ha (Wheat [9]) [%] | inhibition at 280.212 g/ha (Soybean [10]) [%] | inhibition at 280.212 g/ha (Green Foxtail [11]) [%] | inhibition at 280.212 g/ha (Seedling Johnsongrass [12]) [%] | inhibition at 280.212 g/ha (Bedstraw Catchweed [13]) [%] | inhibition at 280.212 g/ha (Barnyardgrass [14]) [%] | inhibition at 280.212 g/ha (Giant Foxtail [15]) [%] | inhibition at 280.212 g/ha (Wild Oats [17]) [%] | inhibition at 280.212 g/ha (Cocklebur [18]) [%] | inhibition at 280.212 g/ha (Velvetleaf [19]) [%] | inhibition at 280.212 g/ha (Corn [20]) [%] | inhibition at 280.212 g/ha (Downy Brome [21]) [%] | further results
CC(C)OC(=O)c1cc(-c2nn(C)c(C(F)(F)F)c2C(F)F)c(F)cc1Cl [Compound 13, 2-Chloro-5-[4-(difluoromethyl)-1-methyl-5-(trifluoromethyl)-1H-pyrazol-3-yl]-4-fluorobenzoic acid, 1-methylethyl ester] | 70 | 100 | 80 | 100 | 90 | 98 | 90 | 65 | 3 | 30 | 100 | 100 | 100 | 100 | 100 | 95 | 95 | 100 | 55 | 90 | % plant inhibition (Cocklebur [1]): 75%; % plant inhibition (Velvetleaf [2]): 98%; % plant inhibition (Corn [3]): 65%; % plant inhibition (Barnyardgrass [14]): 99%; % plant inhibition (Morning Glory [16]): 50% and 93%; inhibition at 280.212 g/ha (Birdseye Speedwell [22]): 100%; inhibition at 280.212 g/ha (Blackgrass [23]): 95%; inhibition at 280.212 g/ha (Common Chickweed [24]): 98%; inhibition at 280.212 g/ha (Rape [25]): 100%; inhibition at 280.212 g/ha (Wheat [26]): 20%; inhibition at 280.212 g/ha (Soybean [27]): 90%; inhibition at 280.212 g/ha (Green Foxtail [28]): 100%; inhibition at 280.212 g/ha (Seedling Johnsongrass [29]): 100%; inhibition at 280.212 g/ha (Bedstraw Catchweed [30]): 100%; inhibition at 280.212 g/ha (Barnyardgrass [31]): 90%; inhibition at 280.212 g/ha (Giant Foxtail [32]): 95%; inhibition at 280.212 g/ha (Morning Glory [33]): 98%; inhibition at 280.212 g/ha (Wild Oats [34]): 90%
Cc1c(-c2cc(C(=O)OCC3CNCCO3)c(Cl)cc2F)nn(C)c1C(F)(F)F (stereo not drawn) [Compound 47] | 0 | 50 | 0 | 20 | 70 | 25 | 70 | 5 | 0 | 0 | 100 | 50 | 95 | 75 | 75 | 5 | 100 | 100 | 50 | 20 | inhibition at 280.212 g/ha (Morning Glory [16]; Ipomoea, pre-emergence, read-out: % plant inhibition): 70%; inhibition at 280.212 g/ha (Birdseye Speedwell [22]): 95%; inhibition at 280.212 g/ha (Blackgrass [23]): 20%; inhibition at 280.212 g/ha (Common Chickweed [24]): 95%; inhibition at 280.212 g/ha (Rape [25]): 65%; inhibition at 280.212 g/ha (Wheat [26]): 15%; inhibition at 280.212 g/ha (Soybean [27]): 30%; inhibition at 280.212 g/ha (Green Foxtail [28]): 70%; inhibition at 280.212 g/ha (Seedling Johnsongrass [29]): 50%; inhibition at 280.212 g/ha (Bedstraw Catchweed [30]): 90%; inhibition at 280.212 g/ha (Barnyardgrass [31]): 5%; inhibition at 280.212 g/ha (Giant Foxtail [32]): 5%; inhibition at 280.212 g/ha (Morning Glory [33]): 70%; inhibition at 280.212 g/ha (Wild Oats [34]): 30%

Source: patent publication US5672715A, “Herbicidal substituted 3-aryl-pyrazoles” (Monsanto Company, priority 1995, dated 1997)
